Measured values from PMC4503722, “Novel Phenotypic Outcomes Identified for a Public Collection of Approved Drugs from a Publicly Accessible Panel of Assays” (PLoS ONE, 2015).
Where two headings read alike, the source gives them in different places.

Tests used:
[1] = test system: DLD-1; assay: cells; type: cell-based
[2] = test system: NCI-H716 cells; assay: cells; type: cell-based, Human
[3] = target: T1, hp70S6K1 (RPS6KB1) (Homo sapiens, UniProt P23443); assay: Cerep LANCE kinase assay hp70S6K1 (S1 assay 31); type: biochemical; details: read-out: p70S6K1
T1 construct: purchased Cerep (LANCE kinase assay platform, contract assay)
T1 sequence (P23443 whole entry): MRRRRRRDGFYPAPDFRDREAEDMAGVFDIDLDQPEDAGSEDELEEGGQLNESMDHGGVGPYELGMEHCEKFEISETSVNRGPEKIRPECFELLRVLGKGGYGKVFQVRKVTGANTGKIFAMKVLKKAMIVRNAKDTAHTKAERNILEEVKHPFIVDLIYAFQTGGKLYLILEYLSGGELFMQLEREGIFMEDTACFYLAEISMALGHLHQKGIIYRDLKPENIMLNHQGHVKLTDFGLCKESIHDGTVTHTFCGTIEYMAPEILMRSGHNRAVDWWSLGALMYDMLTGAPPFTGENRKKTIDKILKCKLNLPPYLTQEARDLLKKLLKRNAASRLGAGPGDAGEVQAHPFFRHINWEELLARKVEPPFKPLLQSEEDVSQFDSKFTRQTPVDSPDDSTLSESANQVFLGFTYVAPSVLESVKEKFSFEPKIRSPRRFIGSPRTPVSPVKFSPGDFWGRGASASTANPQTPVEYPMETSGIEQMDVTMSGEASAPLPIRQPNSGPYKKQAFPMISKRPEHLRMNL

[4] = test system: HCT116 cells treated with a GSK3β inhibitor; assay: cells; type: cell-based
[5] = test system: nuclear β-catenin in C2C12 cells; assay: cells; type: cell-based
[6] = test system: endothelial tube formation in co-cultures of ECFCs and ADSCs treated with VEGF; assay: cells; type: cell-based, human
[7] = target: T2, hGSK3b (Homo sapiens, UniProt P49841); assay: Cerep LANCE kinase assay hGSK3b (S1 assay 34); type: biochemical; details: read-out: GSK3b
T2 construct: purchased Cerep (LANCE kinase assay platform, contract assay)
T2 sequence (P49841 whole entry): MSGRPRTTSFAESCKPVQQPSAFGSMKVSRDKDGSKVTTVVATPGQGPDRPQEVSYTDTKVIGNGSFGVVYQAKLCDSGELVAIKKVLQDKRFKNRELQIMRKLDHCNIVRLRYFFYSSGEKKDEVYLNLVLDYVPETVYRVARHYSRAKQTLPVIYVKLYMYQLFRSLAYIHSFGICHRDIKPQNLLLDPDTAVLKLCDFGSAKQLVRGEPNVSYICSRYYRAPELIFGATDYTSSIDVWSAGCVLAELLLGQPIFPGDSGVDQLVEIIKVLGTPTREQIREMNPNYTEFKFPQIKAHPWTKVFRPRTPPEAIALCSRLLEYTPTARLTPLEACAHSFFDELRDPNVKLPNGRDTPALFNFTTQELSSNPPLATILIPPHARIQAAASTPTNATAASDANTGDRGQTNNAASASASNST

[8] = target: T3, hKDR (Homo sapiens, UniProt P35968); assay: Cerep LANCE kinase assay hKDR (S1 assay 32); type: biochemical; details: read-out: KDR
T3 construct: purchased Cerep (LANCE kinase assay platform, contract assay)
T3 sequence (P35968 20-1356): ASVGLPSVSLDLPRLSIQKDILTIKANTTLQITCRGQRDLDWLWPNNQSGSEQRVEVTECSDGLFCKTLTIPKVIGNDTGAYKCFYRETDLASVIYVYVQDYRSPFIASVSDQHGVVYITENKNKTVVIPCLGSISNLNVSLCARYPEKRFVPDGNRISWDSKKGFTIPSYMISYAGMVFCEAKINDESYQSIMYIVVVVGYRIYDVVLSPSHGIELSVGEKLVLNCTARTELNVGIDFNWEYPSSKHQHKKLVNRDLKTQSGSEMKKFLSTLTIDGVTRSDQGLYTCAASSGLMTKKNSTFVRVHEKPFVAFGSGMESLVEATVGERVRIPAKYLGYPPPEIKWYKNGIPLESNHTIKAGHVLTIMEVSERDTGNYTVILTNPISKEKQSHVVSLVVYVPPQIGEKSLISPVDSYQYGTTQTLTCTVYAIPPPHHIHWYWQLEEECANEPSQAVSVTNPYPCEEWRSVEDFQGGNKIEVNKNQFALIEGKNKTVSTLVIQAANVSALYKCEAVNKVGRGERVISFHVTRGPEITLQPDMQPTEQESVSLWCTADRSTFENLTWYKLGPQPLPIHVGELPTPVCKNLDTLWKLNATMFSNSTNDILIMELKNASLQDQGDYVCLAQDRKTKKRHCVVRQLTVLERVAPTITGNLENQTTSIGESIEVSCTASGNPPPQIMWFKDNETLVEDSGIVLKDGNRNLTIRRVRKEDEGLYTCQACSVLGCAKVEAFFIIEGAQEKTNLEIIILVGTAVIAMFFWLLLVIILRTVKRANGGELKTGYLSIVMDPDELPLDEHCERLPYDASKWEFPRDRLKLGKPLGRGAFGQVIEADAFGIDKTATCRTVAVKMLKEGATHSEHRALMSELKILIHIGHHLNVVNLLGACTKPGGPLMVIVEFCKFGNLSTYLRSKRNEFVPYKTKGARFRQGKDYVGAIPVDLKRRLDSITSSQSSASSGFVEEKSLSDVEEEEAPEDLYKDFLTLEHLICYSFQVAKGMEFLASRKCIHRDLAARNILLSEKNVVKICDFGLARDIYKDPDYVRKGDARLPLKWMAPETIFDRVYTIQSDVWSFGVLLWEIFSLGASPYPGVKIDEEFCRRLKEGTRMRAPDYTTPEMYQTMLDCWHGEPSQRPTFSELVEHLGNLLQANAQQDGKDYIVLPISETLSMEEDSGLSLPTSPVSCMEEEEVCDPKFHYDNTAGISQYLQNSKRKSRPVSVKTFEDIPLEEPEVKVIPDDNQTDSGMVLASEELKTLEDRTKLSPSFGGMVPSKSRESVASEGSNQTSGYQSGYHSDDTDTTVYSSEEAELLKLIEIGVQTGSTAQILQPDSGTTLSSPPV

[9] = test system: SW480; assay: cells; type: cell-based
[10] = target: T4, hFLT3 (Homo sapiens, UniProt P36888); assay: Cerep LANCE kinase assay hFLT3 (S1 assay 35); type: biochemical; details: read-out: FLT3
T4 construct: purchased Cerep (LANCE kinase assay platform, contract assay)
T4 sequence (P36888 27-993): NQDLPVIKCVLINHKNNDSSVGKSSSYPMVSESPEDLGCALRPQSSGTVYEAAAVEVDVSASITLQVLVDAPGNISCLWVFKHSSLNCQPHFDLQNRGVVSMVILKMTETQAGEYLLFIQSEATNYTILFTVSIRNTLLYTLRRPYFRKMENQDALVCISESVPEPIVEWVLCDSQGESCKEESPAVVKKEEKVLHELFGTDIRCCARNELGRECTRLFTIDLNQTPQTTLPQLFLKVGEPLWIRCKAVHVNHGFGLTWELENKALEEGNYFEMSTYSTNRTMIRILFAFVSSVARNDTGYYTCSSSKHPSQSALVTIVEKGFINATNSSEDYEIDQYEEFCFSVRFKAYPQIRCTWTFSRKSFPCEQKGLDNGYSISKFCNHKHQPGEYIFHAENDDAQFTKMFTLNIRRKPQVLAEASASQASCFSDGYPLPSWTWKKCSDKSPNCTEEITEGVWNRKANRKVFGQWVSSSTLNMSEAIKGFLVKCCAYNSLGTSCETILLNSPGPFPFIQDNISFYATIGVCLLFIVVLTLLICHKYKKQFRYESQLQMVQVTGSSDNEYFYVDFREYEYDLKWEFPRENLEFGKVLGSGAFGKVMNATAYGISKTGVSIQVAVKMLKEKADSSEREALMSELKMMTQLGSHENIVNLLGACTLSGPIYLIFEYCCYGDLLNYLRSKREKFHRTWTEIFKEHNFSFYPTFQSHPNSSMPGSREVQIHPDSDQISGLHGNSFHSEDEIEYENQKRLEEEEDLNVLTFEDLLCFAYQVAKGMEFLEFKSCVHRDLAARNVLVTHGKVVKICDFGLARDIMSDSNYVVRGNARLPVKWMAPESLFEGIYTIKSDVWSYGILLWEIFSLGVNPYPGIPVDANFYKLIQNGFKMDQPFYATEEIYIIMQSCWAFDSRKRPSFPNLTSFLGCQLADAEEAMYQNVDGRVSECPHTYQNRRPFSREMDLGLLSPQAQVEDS

[11] = test system: INS-1E cells; assay: cells; type: cell-based, rat
[12] = test system: HeLa cells; assay: cells; type: cell-based
[13] = target: T5, hJAK2 (Homo sapiens, UniProt O60674); assay: Cerep LANCE kinase assay hJAK2 (S1 assay 33); type: biochemical; details: read-out: JAK2
T5 construct: purchased Cerep (LANCE kinase assay platform, contract assay)
T5 sequence (O60674 whole entry): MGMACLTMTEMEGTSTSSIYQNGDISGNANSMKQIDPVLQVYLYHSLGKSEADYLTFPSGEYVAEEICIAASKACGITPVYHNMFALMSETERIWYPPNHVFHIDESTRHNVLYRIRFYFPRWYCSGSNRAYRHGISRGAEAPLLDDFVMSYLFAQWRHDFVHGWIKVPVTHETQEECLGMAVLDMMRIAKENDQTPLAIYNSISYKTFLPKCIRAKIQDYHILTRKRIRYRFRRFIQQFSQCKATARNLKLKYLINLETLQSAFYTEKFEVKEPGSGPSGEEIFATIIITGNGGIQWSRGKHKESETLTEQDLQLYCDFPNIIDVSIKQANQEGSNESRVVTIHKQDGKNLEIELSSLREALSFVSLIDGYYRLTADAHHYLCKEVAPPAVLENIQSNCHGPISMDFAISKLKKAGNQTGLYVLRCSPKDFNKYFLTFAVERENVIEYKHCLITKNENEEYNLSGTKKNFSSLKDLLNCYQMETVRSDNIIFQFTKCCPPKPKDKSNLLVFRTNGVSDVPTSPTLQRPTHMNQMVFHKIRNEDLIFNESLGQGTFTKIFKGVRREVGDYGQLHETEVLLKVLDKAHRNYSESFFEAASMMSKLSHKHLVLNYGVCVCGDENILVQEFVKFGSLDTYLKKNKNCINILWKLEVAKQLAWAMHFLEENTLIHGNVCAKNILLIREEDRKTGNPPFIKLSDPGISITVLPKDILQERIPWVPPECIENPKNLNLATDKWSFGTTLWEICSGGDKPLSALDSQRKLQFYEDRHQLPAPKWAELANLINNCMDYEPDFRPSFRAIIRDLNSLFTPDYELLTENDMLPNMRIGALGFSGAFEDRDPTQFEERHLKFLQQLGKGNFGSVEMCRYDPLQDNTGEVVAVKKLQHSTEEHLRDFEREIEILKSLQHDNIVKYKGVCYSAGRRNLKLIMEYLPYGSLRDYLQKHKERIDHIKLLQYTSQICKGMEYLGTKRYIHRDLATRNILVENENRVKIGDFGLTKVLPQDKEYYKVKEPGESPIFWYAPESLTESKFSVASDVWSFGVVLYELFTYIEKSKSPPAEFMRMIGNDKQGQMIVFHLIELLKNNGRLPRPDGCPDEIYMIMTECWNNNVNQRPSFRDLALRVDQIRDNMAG

[14] = test system: HCT116; assay: cells; type: cell-based
[15] = Homo sapiens, NCI-H716; read-out: GLP 1 Secretion
[16] = Homo sapiens, HCT-116, HCT116 pretreated with GSK3b inhibitor, read-out: GSK3b inh pretreated_Viability ATP HCT116
[17] = Mus musculus, C2C12; read-out: Wnt Pathway
[18] = Homo sapiens; read-out: Anti-Angiogenesis
[19] = Rattus norvegicus, INS-1E; read-out: Insulin Secretion
[20] = Homo sapiens, HCT-116, basal, HCT116, read-out: Basal_Viability ATP HCT116
[21] = Homo sapiens, HCT-116, read-out: GSK3b inh pretreated_Viability ATP HCT116
[22] = Homo sapiens, DLD-1, read-out: Basal_Viability ATP DLD-1
[23] = Homo sapiens, NCI-H716, read-out: GLP 1 Secretion
[24] = Mus musculus, C2C12, read-out: Wnt Pathway
[25] = Homo sapiens, read-out: Anti-Angiogenesis
[26] = Homo sapiens, SW480, read-out: Basal_Viability ATP SW480
[27] = Rattus norvegicus, INS-1E, read-out: Insulin Secretion
[28] = Homo sapiens, HeLa, read-out: CellCycle G2/M
[29] = Homo sapiens, HCT-116, read-out: Basal_Viability ATP HCT116

Structure (SMILES): C[C@@H]1C[C@@H]([C@H](O)CC2CC(=O)NC(=O)C2)C(=O)[C@@H](C)C1
- IC50 ([1]; basal, read-out: Basal_Viability ATP DLD-1): 3.57 µM
- EC50 ([2]; IC50 / EC50; NCI-H716; read-out: GLP 1 Secretion): > 10 µM
- IC50 [3]: > 20 µM
- IC50 ([4]; GSK3b inhibitor pretreated, read-out: GSK3b inh pretreated_Viability ATP HCT116): 1.02 µM
- EC50 ([5]; IC50 / EC50; C2C12 beta-catenin translocation; read-out: Wnt Pathway): > 10 µM
- IC50 ([6]; IC50 / EC50; endothelial tube area, ADSC/ECFC co-culture; read-out: Anti-Angiogenesis): 1.15 µM
- IC50 [7]: > 20 µM
- IC50 [8]: > 20 µM
- IC50 ([9]; basal, read-out: Basal_Viability ATP SW480): 3.04 µM
- IC50 [10]: > 20 µM
- EC50 ([11]; IC50 / EC50; INS-1E; read-out: Insulin Secretion): > 10 µM
- EC50 ([12]; IC50 / EC50; HeLa; read-out: CellCycle G2/M): > 10 µM
- IC50 [13]: > 20 µM
- IC50 ([14]; basal, read-out: Basal_Viability ATP HCT116): 2.02 µM

Structure (SMILES): COc1cc([C@@H]2c3cc4c(cc3[C@H](O)[C@H]3COC(=O)[C@H]23)OCO4)cc(OC)c1OC [Podofilox]
- IC50 ([1]; Homo sapiens, basal, DLD-1, read-out: Basal_Viability ATP DLD-1): 0.182 µM
- EC50 [2, 15]: > 10 µM
- IC50 ([3]; kinase assay): > 20 µM
- IC50 [4, 16]: 0.0667 µM
- EC50 [5, 17]: 0.0091 µM
- IC50 [6, 18]: 0.0081 µM
- IC50 ([7]; kinase assay): > 20 µM
- IC50 ([8]; kinase assay): > 20 µM
- IC50 ([9]; Homo sapiens, basal, SW480, read-out: Basal_Viability ATP SW480): 0.207 µM
- IC50 ([10]; kinase assay): > 20 µM
- EC50 [11, 19]: > 10 µM
- EC50 ([12]; Homo sapiens; S2 Table; HeLa; 20 = no response at highest concentration; read-out: CellCycle G2/M): 0.0077 µM
- IC50 ([13]; kinase assay): > 20 µM
- IC50 [14, 20]: 0.184 µM

Structure (SMILES): Cc1ccccc1C(=O)Nc1ccc(C(=O)N2CCCC(N(C)C)c3ccccc32)cc1 (stereo not drawn) [Mozavaptan]
- IC50 ([1]; Homo sapiens, DLD-1, basal, read-out: Basal_Viability ATP DLD-1): 12.8 µM
- EC50 ([2]; Homo sapiens; IC50 / EC50; NCI-H716; read-out: GLP 1 Secretion): > 10 µM
- IC50 [3]: > 20 µM
- IC50 [4, 21]: > 20 µM
- EC50 ([5]; Mus musculus, C2C12, IC50 / EC50; C2C12 beta-catenin translocation; read-out: Wnt Pathway): 4.56 µM
- IC50 ([6]; Homo sapiens, IC50 / EC50; endothelial tube area, ADSC/ECFC co-culture; read-out: Anti-Angiogenesis): > 10 µM
- IC50 [7]: > 20 µM
- IC50 [8]: > 20 µM
- IC50 ([9]; Homo sapiens, SW480, basal, read-out: Basal_Viability ATP SW480): 3.45 µM
- IC50 [10]: > 20 µM
- EC50 ([11]; Rattus norvegicus; IC50 / EC50; INS-1E; read-out: Insulin Secretion): > 10 µM
- EC50 ([12]; Homo sapiens, HeLa, IC50 / EC50; HeLa; read-out: CellCycle G2/M): > 10 µM
- IC50 [13]: > 20 µM
- IC50 ([14]; Homo sapiens, HCT-116, basal, read-out: Basal_Viability ATP HCT116): 7.56 µM

Structure (SMILES): COC(=O)Nc1nc2ccc(C(=O)c3cccs3)cc2[nH]1 [Nocodazole]
- IC50 ([1]; Homo sapiens, DLD-1, basal, DLD-1, read-out: Basal_Viability ATP DLD-1): 1.66 µM
- EC50 [2, 15]: > 10 µM
- IC50 ([3]; kinase assay): > 20 µM
- IC50 [4, 16]: 1.12 µM
- EC50 [5, 17]: 0.0434 µM
- IC50 [6, 18]: 0.102 µM
- IC50 ([7]; kinase assay): 19.9 µM
- IC50 ([8]; kinase assay): 6.61 µM
- IC50 ([9]; Homo sapiens, SW480, basal, SW480, read-out: Basal_Viability ATP SW480): > 20 µM
- IC50 ([10]; kinase assay): > 20 µM
- EC50 [11, 19]: > 10 µM
- EC50 ([12]; Homo sapiens, HeLa, S2 Table; HeLa; 20 = no response at highest concentration; read-out: CellCycle G2/M): 0.0221 µM
- IC50 ([13]; kinase assay): > 20 µM
- IC50 [14, 20]: 1.08 µM

Structure (SMILES): COc1cc(-c2ccc(=O)[nH]n2)ccc1OC(F)F [Zardaverine]
- IC50 [1, 22]: > 20 µM
- EC50 [2, 23]: > 10 µM
- IC50 ([3]; kinase assay): > 20 µM
- IC50 [4, 21]: > 20 µM
- EC50 [5, 24]: > 10 µM
- IC50 [6, 25]: 1.22 µM
- IC50 ([7]; kinase assay): > 20 µM
- IC50 ([8]; kinase assay): > 20 µM
- IC50 [9, 26]: > 20 µM
- IC50 ([10]; kinase assay): > 20 µM
- EC50 [11, 27]: > 10 µM
- EC50 [12, 28]: > 10 µM
- IC50 ([13]; kinase assay): > 20 µM
- IC50 [14, 29]: > 20 µM

Structure (SMILES): CC[C@@H]([C@H](C)O)n1ncn(-c2ccc(N3CCN(c4ccc(OC[C@@H]5CO[C@@](Cn6cncn6)(c6ccc(F)cc6F)C5)cc4)CC3)cc2)c1=O [posaconazole]
- IC50 [1, 22]: > 20 µM
- EC50 [2, 23]: > 10 µM
- IC50 [3]: > 20 µM
- IC50 [4, 21]: > 20 µM
- EC50 [5, 24]: 1.63 µM
- IC50 [6, 25]: 6.46 µM
- IC50 [7]: > 20 µM
- IC50 [8]: > 20 µM
- IC50 [9, 26]: 5.81 µM
- IC50 [10]: > 20 µM
- EC50 [11, 27]: > 10 µM
- EC50 [12, 28]: > 10 µM
- IC50 [13]: > 20 µM
- IC50 [14, 29]: 6.24 µM
